# Columns and labels:
# Erythropoietin (EPO) = Erythropoietin (EPO) induction in normal mice; type: in vivo; conditions: male C57BL/6 mice, oral suspension in 0.5% CMC, serum 6 hours after dosing
# Experimental: Eight-week-old male C57BL/6 mice were dosed orally with a suspension of one crystal form of the compound in 0.5% CMC at 20, 60 and 100 mg/kg. Blood samples were obtained from the orbital venous plexus 6 hours after dosing and serum was collected (see also, Robinson A, et al., Gastroenterology. 2008, 134:145-55; Hsieh M M, et al., Blood. 2007, 110:2140-7). Samples were analyzed for EPO by electrochemiluminescence-based immunoassay (MSD) according to manufacturer's instructions. The inducted EPOs when the Crystalline Form VI in this invention was used in suspension were determined to be around 6, 297 and above 300 folds over that of the vehicle group without induction.
# [1] = Stability determination of crystal forms (competitive slurry in isopropyl acetate); type: physicochemical; conditions: Forms IV and VI stirred together in isopropyl acetate solution of compound of Formula I, room temperature, 36 hrs; resulted crystal form purely Form VI
# Experimental: 9.6 mg of the Crystalline Form IV and 1.97 mg of the Crystalline Form VI disclosed in this invention were then added into the solution and stirred at room temperature for 36 hrs. After centrifugation and drying, the resulted crystal form was determined to be purely the Crystalline Form VI.
smiles,measurement,setting,value
Cc1nc(C(=O)NCC(=O)O)c(O)c2ccc(Oc3ccccc3)cc12 [Crystalline Form VI],inducted EPO over that of the vehicle group,Erythropoietin (EPO); 20 mg/kg,around 6 folds
same,inducted EPO over that of the vehicle group,Erythropoietin (EPO); 60 mg/kg,~297 folds
same,inducted EPO over that of the vehicle group,Erythropoietin (EPO); 100 mg/kg,above 300 folds
same,thermodynamic stability of crystal form,[1],thermodynamically the most stable crystal form
